Where “and” joins values, the source holds several entries; their conditions need not be identical. Identical values can stand only once. Like-named read-outs stand apart in the source and are kept apart here.
Tests used:
Assay in all cases: SelectScreen kinase assay
[1] = molecular target: MAPK10 (JNK3) (Homo sapiens, UniProt P53779)
Description: (§1) Selectivity profiling assays were performed by the Invitrogen SelectScreen™ Services. […] The concentration of ATP was selected to be equal to the KM, unless indicated otherwise.

[2] = molecular target: TXK (Homo sapiens, UniProt P42681)
Description: as §1

[3] = molecular target: INSR (Homo sapiens, UniProt P06213)
Description: as §1

[4] = molecular target: PRKG1 (Homo sapiens, UniProt Q13976)
Description: as §1

[5] = molecular target: T1, MAPKAPK5 (PRAK) (Homo sapiens, UniProt Q8IW41)
T1 sequence (Q8IW41 1-473): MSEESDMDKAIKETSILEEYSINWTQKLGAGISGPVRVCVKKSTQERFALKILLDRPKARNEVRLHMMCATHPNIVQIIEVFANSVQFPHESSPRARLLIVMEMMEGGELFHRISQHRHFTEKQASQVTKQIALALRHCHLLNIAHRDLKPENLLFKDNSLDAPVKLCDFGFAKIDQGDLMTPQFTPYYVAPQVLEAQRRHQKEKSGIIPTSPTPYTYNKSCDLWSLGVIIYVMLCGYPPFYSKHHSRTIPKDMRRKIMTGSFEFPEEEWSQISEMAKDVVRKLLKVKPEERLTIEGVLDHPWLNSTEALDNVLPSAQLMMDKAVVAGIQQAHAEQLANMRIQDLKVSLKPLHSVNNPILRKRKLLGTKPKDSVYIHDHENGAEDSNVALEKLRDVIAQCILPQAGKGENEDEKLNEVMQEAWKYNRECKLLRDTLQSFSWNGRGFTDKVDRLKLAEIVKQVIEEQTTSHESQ
Description: as §1

[6] = molecular target: AKT3 (PKB gamma) (Homo sapiens, UniProt Q9Y243); conditions: for Inhibition at 1 µM (%): AKT3 (PKB gamma), ZLYTE, ATP Km app
Description: as §1

[7] = molecular target: DAPK3 (ZIPK) (Homo sapiens, UniProt O43293); conditions: for Inhibition at 1 µM (%): DAPK3 (ZIPK), ZLYTE, ATP Km app
Description: as §1

[8] = molecular target: T2, TGFBR1 (ALK5) (Homo sapiens, UniProt P36897); conditions: for Inhibition at 1 µM (%): LanthaScreen Binding
T2 sequence (P36897 34-503): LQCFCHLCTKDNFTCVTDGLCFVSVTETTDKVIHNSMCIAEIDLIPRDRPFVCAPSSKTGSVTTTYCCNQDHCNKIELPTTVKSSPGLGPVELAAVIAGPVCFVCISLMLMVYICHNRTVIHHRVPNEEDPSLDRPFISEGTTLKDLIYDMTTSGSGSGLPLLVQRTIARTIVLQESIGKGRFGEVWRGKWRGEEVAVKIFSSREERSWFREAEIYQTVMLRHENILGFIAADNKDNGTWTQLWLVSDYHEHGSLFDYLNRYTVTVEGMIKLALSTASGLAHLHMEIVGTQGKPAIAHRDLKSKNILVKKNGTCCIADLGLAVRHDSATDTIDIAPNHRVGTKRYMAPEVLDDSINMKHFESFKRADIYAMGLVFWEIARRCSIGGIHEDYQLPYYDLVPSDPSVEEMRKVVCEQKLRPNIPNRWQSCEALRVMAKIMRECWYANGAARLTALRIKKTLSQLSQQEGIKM
Description: as §1

[9] = molecular target: T3, DCAMKL2 (DCK2) (Homo sapiens, UniProt Q8N568)
T3 sequence (Q8N568 1-766): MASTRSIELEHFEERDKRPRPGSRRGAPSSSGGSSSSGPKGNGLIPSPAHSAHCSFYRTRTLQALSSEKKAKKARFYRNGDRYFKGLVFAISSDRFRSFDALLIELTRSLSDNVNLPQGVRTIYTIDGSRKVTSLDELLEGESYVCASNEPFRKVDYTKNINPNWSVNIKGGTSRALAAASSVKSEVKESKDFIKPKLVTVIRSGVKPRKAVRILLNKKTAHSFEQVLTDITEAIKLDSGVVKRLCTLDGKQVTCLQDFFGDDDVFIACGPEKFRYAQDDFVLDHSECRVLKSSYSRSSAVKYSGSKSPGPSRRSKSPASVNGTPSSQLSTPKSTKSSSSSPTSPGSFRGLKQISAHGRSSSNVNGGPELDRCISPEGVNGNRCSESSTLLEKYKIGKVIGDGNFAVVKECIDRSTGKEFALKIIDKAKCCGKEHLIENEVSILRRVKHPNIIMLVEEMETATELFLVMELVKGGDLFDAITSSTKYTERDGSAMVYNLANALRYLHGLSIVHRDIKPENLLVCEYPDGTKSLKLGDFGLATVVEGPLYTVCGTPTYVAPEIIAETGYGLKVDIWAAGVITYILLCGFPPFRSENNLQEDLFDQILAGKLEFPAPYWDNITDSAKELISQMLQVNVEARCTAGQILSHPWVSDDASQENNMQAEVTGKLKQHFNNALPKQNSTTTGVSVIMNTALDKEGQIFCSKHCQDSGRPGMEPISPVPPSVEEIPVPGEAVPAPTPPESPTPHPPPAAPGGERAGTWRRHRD
Description: as §1

[10] = molecular target: PIK3C2G (PI3K-C2 gamma) (Homo sapiens, UniProt O75747)
Description: as §1

[11] = 1 h, 1 μM WEL028, 1 h preincubation

Sequence of PIK3C2G (PI3K-C2 gamma) (O75747 whole entry): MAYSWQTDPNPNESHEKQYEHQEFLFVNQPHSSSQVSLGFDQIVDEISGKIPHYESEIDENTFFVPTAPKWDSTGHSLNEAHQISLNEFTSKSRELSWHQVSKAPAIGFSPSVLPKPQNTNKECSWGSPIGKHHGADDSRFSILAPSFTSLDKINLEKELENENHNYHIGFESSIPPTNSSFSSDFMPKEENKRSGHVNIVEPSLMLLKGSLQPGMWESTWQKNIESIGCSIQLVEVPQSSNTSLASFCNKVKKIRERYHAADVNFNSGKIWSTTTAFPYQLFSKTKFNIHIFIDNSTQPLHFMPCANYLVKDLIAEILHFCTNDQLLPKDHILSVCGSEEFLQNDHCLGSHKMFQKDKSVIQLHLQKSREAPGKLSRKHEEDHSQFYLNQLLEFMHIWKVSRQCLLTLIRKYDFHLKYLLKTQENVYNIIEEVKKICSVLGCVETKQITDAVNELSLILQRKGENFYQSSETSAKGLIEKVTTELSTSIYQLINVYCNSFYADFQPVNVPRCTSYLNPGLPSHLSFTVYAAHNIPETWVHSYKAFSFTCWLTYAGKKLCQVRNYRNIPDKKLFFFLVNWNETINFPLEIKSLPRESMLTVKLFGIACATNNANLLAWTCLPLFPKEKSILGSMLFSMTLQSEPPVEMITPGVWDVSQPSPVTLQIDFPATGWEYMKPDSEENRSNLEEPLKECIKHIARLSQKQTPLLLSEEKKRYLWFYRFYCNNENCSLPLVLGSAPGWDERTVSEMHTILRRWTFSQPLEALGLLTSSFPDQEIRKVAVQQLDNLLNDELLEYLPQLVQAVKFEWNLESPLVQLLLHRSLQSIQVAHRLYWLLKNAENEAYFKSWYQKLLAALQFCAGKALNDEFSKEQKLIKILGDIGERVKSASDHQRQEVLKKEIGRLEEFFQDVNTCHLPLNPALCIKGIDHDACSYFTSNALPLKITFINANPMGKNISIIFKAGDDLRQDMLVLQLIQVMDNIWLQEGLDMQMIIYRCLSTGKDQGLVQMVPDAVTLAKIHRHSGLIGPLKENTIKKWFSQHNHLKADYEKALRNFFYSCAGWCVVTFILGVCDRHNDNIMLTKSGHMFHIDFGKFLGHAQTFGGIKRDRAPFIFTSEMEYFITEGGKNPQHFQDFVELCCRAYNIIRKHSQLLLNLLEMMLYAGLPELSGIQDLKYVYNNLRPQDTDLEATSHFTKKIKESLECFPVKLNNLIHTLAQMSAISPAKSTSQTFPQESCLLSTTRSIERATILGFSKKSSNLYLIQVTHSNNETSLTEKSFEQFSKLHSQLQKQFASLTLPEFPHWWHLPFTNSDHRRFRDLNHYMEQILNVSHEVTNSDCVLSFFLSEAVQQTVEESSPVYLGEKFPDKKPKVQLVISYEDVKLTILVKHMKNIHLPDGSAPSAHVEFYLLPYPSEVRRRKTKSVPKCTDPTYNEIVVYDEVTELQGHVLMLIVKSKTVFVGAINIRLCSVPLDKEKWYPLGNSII
Sequence of PRKG1 (Q13976 whole entry): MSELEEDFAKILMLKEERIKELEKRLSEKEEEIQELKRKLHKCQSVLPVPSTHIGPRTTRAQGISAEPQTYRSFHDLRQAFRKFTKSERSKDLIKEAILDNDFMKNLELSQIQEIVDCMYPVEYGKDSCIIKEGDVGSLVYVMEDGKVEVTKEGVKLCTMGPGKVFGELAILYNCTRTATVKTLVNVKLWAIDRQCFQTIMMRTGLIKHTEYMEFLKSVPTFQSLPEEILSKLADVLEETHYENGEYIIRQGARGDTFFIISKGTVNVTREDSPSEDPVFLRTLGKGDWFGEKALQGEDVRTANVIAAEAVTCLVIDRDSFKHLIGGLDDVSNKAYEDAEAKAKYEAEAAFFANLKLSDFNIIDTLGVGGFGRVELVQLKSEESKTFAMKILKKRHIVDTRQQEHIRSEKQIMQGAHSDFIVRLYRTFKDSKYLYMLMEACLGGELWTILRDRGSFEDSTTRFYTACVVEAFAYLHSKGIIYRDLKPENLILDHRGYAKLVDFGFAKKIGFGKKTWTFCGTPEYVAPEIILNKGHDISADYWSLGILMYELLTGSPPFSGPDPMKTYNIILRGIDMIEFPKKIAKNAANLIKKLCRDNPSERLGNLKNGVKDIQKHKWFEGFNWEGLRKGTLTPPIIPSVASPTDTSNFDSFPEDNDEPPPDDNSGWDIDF
Sequence of AKT3 (PKB gamma) (Q9Y243 whole entry): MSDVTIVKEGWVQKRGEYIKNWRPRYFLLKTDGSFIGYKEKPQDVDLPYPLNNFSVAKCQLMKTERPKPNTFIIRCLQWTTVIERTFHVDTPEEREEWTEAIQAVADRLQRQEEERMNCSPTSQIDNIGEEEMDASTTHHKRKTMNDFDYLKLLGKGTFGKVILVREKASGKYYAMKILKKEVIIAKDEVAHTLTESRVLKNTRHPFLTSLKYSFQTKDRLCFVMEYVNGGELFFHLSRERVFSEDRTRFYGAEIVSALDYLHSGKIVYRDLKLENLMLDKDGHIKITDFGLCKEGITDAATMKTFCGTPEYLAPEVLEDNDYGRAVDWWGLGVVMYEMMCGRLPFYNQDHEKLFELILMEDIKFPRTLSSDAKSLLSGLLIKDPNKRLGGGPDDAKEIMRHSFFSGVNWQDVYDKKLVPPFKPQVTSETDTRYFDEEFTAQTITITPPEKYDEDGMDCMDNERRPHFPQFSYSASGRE
Sequence of DAPK3 (ZIPK) (O43293 whole entry): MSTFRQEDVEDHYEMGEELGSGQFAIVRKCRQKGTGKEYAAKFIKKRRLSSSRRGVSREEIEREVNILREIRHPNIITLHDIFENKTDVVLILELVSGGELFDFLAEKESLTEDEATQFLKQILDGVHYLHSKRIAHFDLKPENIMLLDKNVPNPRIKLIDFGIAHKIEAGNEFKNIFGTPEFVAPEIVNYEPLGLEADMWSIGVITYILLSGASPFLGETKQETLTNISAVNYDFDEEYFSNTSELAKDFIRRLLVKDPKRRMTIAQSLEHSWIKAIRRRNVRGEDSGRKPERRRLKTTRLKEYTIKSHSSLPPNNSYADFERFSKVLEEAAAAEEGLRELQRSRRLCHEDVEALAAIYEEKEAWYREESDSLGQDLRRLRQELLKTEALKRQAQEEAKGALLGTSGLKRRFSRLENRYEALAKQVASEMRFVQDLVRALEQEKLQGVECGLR
Sequence of TXK (P42681 whole entry): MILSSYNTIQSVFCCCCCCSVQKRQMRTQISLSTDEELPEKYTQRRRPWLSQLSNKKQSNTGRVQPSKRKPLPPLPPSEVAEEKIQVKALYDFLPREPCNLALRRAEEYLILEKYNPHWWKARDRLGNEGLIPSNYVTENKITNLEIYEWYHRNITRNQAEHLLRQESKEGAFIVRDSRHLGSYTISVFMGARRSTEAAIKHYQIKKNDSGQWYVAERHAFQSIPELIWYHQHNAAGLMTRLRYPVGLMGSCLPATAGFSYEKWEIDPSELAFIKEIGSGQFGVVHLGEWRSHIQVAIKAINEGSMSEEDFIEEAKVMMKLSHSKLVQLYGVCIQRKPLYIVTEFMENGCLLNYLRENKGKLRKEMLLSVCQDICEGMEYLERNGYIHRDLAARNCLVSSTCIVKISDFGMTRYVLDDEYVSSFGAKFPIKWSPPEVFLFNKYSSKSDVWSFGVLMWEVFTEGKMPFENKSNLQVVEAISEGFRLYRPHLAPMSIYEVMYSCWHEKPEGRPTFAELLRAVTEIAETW
Sequence of INSR (P06213 28-1382): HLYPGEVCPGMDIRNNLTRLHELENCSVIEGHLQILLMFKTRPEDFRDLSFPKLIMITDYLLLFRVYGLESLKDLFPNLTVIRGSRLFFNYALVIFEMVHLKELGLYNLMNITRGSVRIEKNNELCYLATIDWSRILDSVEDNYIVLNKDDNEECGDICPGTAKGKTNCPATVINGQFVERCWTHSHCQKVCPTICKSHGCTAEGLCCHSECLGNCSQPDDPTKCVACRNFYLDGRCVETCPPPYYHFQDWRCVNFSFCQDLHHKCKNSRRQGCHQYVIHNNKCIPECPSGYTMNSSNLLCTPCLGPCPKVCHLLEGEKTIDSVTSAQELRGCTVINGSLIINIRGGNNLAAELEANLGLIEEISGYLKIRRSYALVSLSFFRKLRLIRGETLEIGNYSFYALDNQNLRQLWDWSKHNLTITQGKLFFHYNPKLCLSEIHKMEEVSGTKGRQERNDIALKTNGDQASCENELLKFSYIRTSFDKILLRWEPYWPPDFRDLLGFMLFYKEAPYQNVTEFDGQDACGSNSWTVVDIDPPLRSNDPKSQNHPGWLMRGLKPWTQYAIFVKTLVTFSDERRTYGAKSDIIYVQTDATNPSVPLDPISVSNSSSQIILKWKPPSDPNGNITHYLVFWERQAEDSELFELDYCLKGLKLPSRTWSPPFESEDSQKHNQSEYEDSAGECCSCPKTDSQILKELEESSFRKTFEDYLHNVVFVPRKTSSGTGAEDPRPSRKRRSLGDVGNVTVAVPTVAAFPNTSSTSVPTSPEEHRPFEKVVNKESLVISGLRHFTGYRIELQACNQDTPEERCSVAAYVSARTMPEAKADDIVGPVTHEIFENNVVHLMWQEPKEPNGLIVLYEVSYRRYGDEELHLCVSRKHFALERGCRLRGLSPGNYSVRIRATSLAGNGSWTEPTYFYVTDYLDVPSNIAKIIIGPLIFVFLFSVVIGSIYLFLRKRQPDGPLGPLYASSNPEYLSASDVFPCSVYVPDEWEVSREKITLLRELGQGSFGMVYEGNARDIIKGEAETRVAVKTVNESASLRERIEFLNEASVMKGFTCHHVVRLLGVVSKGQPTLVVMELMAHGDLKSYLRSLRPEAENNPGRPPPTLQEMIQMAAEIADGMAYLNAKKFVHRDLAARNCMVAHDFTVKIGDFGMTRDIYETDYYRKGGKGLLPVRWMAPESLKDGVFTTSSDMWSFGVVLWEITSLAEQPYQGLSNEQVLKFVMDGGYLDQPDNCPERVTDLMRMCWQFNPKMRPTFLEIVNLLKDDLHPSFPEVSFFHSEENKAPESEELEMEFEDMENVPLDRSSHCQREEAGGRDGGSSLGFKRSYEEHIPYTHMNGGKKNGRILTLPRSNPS

## C#CCOc1ccc(Nc2ncc(Cl)c(Nc3ccccc3NC(=O)C=C)n2)c(OC)c1 [Compound 6]
[1]; 1 μM WEL028, 1 h preincubation
  Inhibition (%): -7%
[1]; MAPK10 (JNK3), 1 µM, ZLYTE, ATP 100
  Inhibition at 1 µM (%): -14%
[2]; [11]
  inhibition at 1 µM: 7%
[2]; read-out: Inhibition at 1 µM (%), 1 µM, ZLYTE, ATP Km app
  inhibition at 1 µM: 8%
[3]; 1 h
  inhibition at 1 µM: 11%
[3]; read-out: Inhibition at 1 µM (%)
  inhibition at 1 µM: 11%
[4]; 1 µM, ZLYTE, ATP Km app, listed as WEL028, 1 µM
  Inhibition at 1 µM (%): -6% and 0%
[4]; [11]
  inhibition at 1 µM: -3%
[5]
  IC50: 0.501 µM
[5]; [11]
  inhibition at 1 µM: 66%
[5]; 1 h, log[inhibitor] (M) -5.00, ZLYTE, ATP Km app
  inhibition at 10 µM: 95%
[5]; 1 h, log[inhibitor] (M) -5.48, ZLYTE, ATP Km app
  inhibition at 3.31 µM: 94%
[5]; 1 h, log[inhibitor] (M) -5.95, ZLYTE, ATP Km app
  inhibition at 1.12 µM: 76%
[5]; 1 h, log[inhibitor] (M) -6.43, ZLYTE, ATP Km app
  inhibition at 0.372 µM: 36%
[5]; 1 h, log[inhibitor] (M) -7.39, ZLYTE, ATP Km app
  inhibition at 0.04074 µM: 13%
[5]; 1 h, log[inhibitor] (M) -[…], ZLYTE, ATP Km app
  inhibition at 0.004571 µM: 4%
[5]; IC50 on that kinase divided by IC50 on FES^S700C
  Apparent fold selectivity: 112 fold
[5]; MAPKAPK5 (PRAK), 1 µM, ZLYTE, ATP Km app, listed as WEL028, 1 µM
  Inhibition at 1 µM (%): 70%
[5]; read-out: Inhibition at 1 µM (%), MAPKAPK5 (PRAK), 1 µM, ZLYTE, ATP Km app
  inhibition at 1 µM: 62%
[6]; [11]
  inhibition at 1 µM: 1%
[6]
  Inhibition at 1 µM (%): 3%
[6]; listed as WEL028, 1 µM
  Inhibition at 1 µM (%): 0%
[7]; [11]
  inhibition at 1 µM: 4%
[7]
  Inhibition at 1 µM (%): 2%
[7]; listed as WEL028, 1 µM
  Inhibition at 1 µM (%): 5%
[8]
  Inhibition at 1 µM (%): 3%
[8]; listed as WEL028, 1 µM
  Inhibition at 1 µM (%): 8%
[8]; [11]
  inhibition at 1 µM: 6%
[9]; [11]
  inhibition at 1 µM: 3%
[9]; DCAMKL2 (DCK2), 1 µM, ZLYTE, ATP Km app, listed as WEL028, 1 µM
  Inhibition at 1 µM (%): 2%
[9]; read-out: Inhibition at 1 µM (%), DCAMKL2 (DCK2), 1 µM, ZLYTE, ATP Km app
  inhibition at 1 µM: 4%
[10]; [11]
  inhibition at 1 µM: -3%
[10]; PIK3C2G (PI3K-C2 gamma), 1 µM, Adapta, ATP 10, listed as WEL028, 1 µM
  Inhibition at 1 µM (%): -1% and -6%

From article PMC7316778 (Nature Communications, 2020)
